Measurements published in patent US7709645B2, “Pyrrolo-pyridine kinase modulators” (SGX Pharmaceuticals, Inc., priority 2004, dated 2010).

Molecular target: T1, MET kinase (Homo sapiens, UniProt P08581)
T1 construct: Sf9 insect cell culture expressing the kinase domain of human Met; 6x Histidine tag (TEV-cleavable) (cleaved yes); made in house; host or cells: Sf9 insect cells
Experiment: Met Bioassay (luminescence-based enzyme assay, Kinase-Glo)
Assay type: biochemical
Conditions: 10 μM ATP
Description: In addition to the c-Abl PK/LDH coupled assay (above), homogeneous luminescence-based inhibitor screening assays were developed for c-Abl, MET, AurA, and PDK1 kinases (among others). Each of these assays made use of an ATP depletion assay (Kinase-Glo™, Promega Corporation, Madison, Wis.) to quantitate kinase activity. The Kinase-Glo™ format uses a thermostable luciferase to generate luminescent signal from ATP remaining in solution following the kinase reaction. The luminescent signal is inversely correlated with the amount of kinase activity.
Materials: Poly Glu-Tyr (4:1) substrate (Sigma Cat# P-0275), ATP (Sigma Cat#A-3377, FW=551), HEPES buffer, pH 7.5, Bovine serum albumin (BSA) (Roche 92423420), MgCl2, Staurosporine (Streptomyces sp. Sigma Cat#85660-1MG), white Costar 384-well flat-bottom plate (VWR Cat#29444-088). MET kinase (see below), Kinase-Glo™ (Promega Cat#V6712).
Stock Solutions: 10 mg/ml poly Glu-Tyr in water, stored at −20° C.; 100 mM HEPES buffer, pH 7.5 (5 ml 1M stock+45 ml miliQH2O); 10 mM ATP (5.51 mg/ml in dH2O) stored at −20° C. (diluted 50 μl into total of 10 ml miliQH2O daily=50 μM ATP working stock); 1% BSA (1 g BSA in 100 ml 0.1M HEPES, pH 7.5, stored at −20° C.), 100 mM MgCl2; 200 μM Staurosporine, 2× Kinase-Glo™ reagent (made fresh or stored at −20° C.).
Standard Assay Setup for 384-well format (20 μl kinase reaction, 40 μl detection reaction): 10 mM MgCl2; 0.3 mg/ml poly Glu-Tyr; 0.1% BSA; 1 μl test compound (in DMSO); 0.4 μg/ml MET kinase; 10 μM ATP; 100 mM HEPES buffer. Positive controls contained DMSO with no test compound. Negative controls contained 10 μM staurosporine. The kinase reactions were initiated at time t=0 by the addition of ATP. Kinase reactions were incubated at 21° C. for 60 min, then 20 μl of Kinase-Glo™ reagent were added to each well to quench the kinase reaction and initiate the luminescence reaction. After a 20 min incubation at 21° C., the luminescence was detected in a plate-reading luminometer.
The cell pellets produced from half of a 12 L Sf9 insect cell culture expressing the kinase domain of human Met were resuspended in a buffer containing 50 mM Tris-HCl pH 7.7 and 250 mM NaCl, in a volume of approximately 40 ml per 1 L of original culture. One tablet of Roche Complete, EDTA-free protease inhibitor cocktail (Cat# 1873580) was added per 1 L of original culture. The suspension was stirred for 1 hour at 4° C. Debris was removed by centrifugation for 30 minutes at 39,800×g at 4° C. The supernatant was decanted into a 500 ml beaker and 10 ml of 50% slurry of Qiagen Ni-NTA Agarose (Cat# 30250) that had been pre-equilibrated in 50 mM Tris-HCl pH 7.8, 50 mM NaCl, 10% Glycerol, 10 mM Imidazole, and 10 mM Methionine, were added and stirred for 30 minutes at 4° C. The sample was then poured into a drip column at 4° C. and washed with 10 column volumes of 50 mM Tris-HCl pH 7.8, 500 mM NaCl, 10% Glycerol, 10 mM Imidazole, and 10 mM Methionine. The protein was eluted using a step gradient with two column volumes each of the same buffer containing 50 mM, 200 mM, and 500 mM Imidazole, sequentially. The 6× Histidine tag was cleaved overnight using 40 units of TEV protease (Invitrogen Cat#10127017) per 1 mg of protein while dialyzing in 50 mM Tris-HCl pH 7.8, 500 mM NaCl, 10% Glycerol, 10 mM Imidazole, and 10 mM Methionine at 4° C. The 6× Histidine tag was removed by passing the sample over a Pharmacia 5 ml IMAC column (Cat# 17-0409-01) charged with Nickel and equilibrated in 50 mM Tris-HCl pH 7.8, 500 mM NaCl, 10% Glycerol, 10 mM Imidazole, and 10 mM Methionine. The cleaved protein bound to the Nickel column at a low affinity and was eluted with a step gradient. The step gradient was run with 15% and then 80% of the B-side (A-side=50 mM Tris-HCl pH 7.8, 500 mM NaCl, 10% Glycerol, 10 mM Imidazole, and 10 mM Methionine; B-side=50 mM Tris-HCl pH 7.8, 500 mM NaCl, 10% Glycerol, 500 mM Imidazole, and 10 mM Methionine) for 4 column volumes each. […]

T1 sequence (P08581 1078-1345 limits assumed): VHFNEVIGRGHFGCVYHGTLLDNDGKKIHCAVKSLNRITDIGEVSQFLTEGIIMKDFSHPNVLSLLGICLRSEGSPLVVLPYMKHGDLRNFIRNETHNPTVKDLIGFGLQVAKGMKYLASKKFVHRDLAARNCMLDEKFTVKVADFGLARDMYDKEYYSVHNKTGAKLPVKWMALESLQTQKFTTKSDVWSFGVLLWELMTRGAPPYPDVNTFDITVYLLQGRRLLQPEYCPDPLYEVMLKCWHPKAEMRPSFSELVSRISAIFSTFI

| SMILES | IC50 |
| --- | --- |
| COc1ccc(-c2cnc3[nH]cc(-c4ccc(N)nc4)c3c2)cc1OC [AE56] | < 1000 nM |
| COCCNc1ccc(-c2c[nH]c3ncc(-c4ccc(OC)c(OC)c4)cc23)cn1 [AE57] | 1000 to 5000 nM |
